# Assay results as given in patent publication US8470552B2, “Strategy to reduce lactic acid production and control PH in animal cell culture” (Keck Graduate Institute, priority 2009, dated 2013).
# Key:
# [1] = system: DG44 CHO (Native Control cells); assay: Native control cells grown in various levels of Na-lactate and NaCl (shaker flasks); type: cell-based, Chinese Hamster
# Procedure: Unless otherwise noted, the experiments described herein were conducted with a dihydrofolate reductase deficient (DHFR^−) Chinese Hamster Ovary cell line, DG44 CHO (Invitrogen, Carlsbad, Calif.). Prior to experimentation, the cells were transfected with a pOPTI-Vec TOPO plasmid vector containing the gene for a recombinant monoclonal ScFv-Fc1 protein fragment. Transfected cells were grown in selective OptiCHO medium (Invitrogen, Carlsbad, Calif.) and the recombinant gene copy number was further amplified by supplementing the medium with 250 nM methotrexate. The amount of recombinant antibody fragment expressed was less than 10 mg/L and not subsequently measured. This cell line was used to test the feasibility of the novel approach in terms of cell growth, death, and metabolism. Cells were frozen down and hereafter referred to as “Native Control” cells. All subsequent experiments were performed without methotrexate.
# Cell concentration and viability was measured by the trypan blue exclusion method using a ViCell analyzer (Beckman Coulter, Fullerton, Calif.). Off-line measurements were taken with a Bioprofile 400 (Nova Biomedical, Waltham, Mass.) for glucose, glutamine, lactate, carbon dioxide, oxygen, ammonium concentration and pH levels. Osmolality was measured by freezing point depression on a Model 3250 Osmometer (Advanced Instruments, Norwood, Mass.)
# In the first set of experiments, illustrated in FIGS. 1-6, cultures were grown at 30 ml working volume in 125 ml shaker flasks (Corning, Lowell, Mass.) placed in an incubator at 37° C., 135 rpm, and 8% CO2. Continuous passages were performed every 3 to 4 days in duplicate shaker flasks inoculated at a seeding density of 1.0×10^6 cell/ml. After the cells were adapted to the high lactate concentration, longer-duration batch cultures were performed in triplicate shaker flasks for 12 days starting at a seeding density of 0.3×10^6 cells/ml. A sodium (D/L)-lactate stock solution (Sigma, Lowell, Mass.) was used for lactate supplementation. All reported lactate values are for the physiologically relevant L-Lactate isomer.
# Specific rates were determined on a time interval bases by measuring daily viable and total cell density (VCD or TCD) and metabolite concentrations. Specific net growth rate (μN), was calculated as change in VCD over a time interval t1 to t2 using Equation 1: […]
# Metabolic flux was calculated as specific nutrient consumption rate or specific metabolite production rate (qp) using Equations 5 and 6, where P is nutrient such as glucose or glutamine or metabolite such as lactic acid or ammonium) concentration:
# Native control cells were grown in various levels of Na-lactate and NaCl to evaluate the impact each component had on growth and viability. Media compositions are discussed in Table 1.
# [2] = system: Lactate Adapted cells (DG44 CHO); assay: Lactate Adapted cells continuously passaged in medium containing 0 to 40 mM lactate; type: cell-based, Chinese Hamster
# Procedure: Unless otherwise noted, the experiments described herein were conducted with a dihydrofolate reductase deficient (DHFR^−) Chinese Hamster Ovary cell line, DG44 CHO (Invitrogen, Carlsbad, Calif.). Prior to experimentation, the cells were transfected with a pOPTI-Vec TOPO plasmid vector containing the gene for a recombinant monoclonal ScFv-Fc1 protein fragment. Transfected cells were grown in selective OptiCHO medium (Invitrogen, Carlsbad, Calif.) and the recombinant gene copy number was further amplified by supplementing the medium with 250 nM methotrexate. The amount of recombinant antibody fragment expressed was less than 10 mg/L and not subsequently measured. This cell line was used to test the feasibility of the novel approach in terms of cell growth, death, and metabolism. Cells were frozen down and hereafter referred to as “Native Control” cells. […]
# Cell concentration and viability was measured by the trypan blue exclusion method using a ViCell analyzer (Beckman Coulter, Fullerton, Calif.). […] Osmolality was measured by freezing point depression on a Model 3250 Osmometer (Advanced Instruments, Norwood, Mass.) […]
# Metabolic flux was calculated as specific nutrient consumption rate or specific metabolite production rate (qp) using Equations 5 and 6, where P is nutrient such as glucose or glutamine or metabolite such as lactic acid or ammonium) concentration: […]
SMILES,specific lactic acid production ([1]; 27 mM lactate (FIG. 1C)),specific lactic acid production ([1]; 40 mM lactate (FIG. 1C)),"specific total growth and death rate ([1]; non-adapted cells, Na-lactate compared with NaCl (FIG. 1B))","viable cell density (VCD) ([1]; non-adapted cells, increasing lactate levels (FIG. 1A))",lactic acid production ([2]; cultures inoculated between 35 to 40 mM lactate (FIG. 3)),initial lactate concentration at zero net flux of lactic acid production ([2]; predicted from FIG. 3),specific lactic acid production ([1]; NaCl supplementation (FIG. 1C))
"CC(O)C(=O)[O-].[Na+] (stereo not shown) [Na-lactate, sodium lactate]",dramatic drop,clear shift from production to consumption,impacted specific total growth and death rate the most,clear reduction,substantially reduced,above 40 mM,
"[Cl-].[Na+] [NaCl, sodium chloride, reference compound]",,,,,,,No such effect
